Broadly, the Ki is the equilibrium dissociation constant of an inhibitor or competing ligand from its target.

One test deals with α7 nAChR Subtype (Rattus norvegicus, UniProt Q05941). Put plainly: Radioligand binding at α7 nAChR subtype, inhibition of [3H]MLA binding, rat hippocampus membranes (HTS at 5 μM, then Ki). The following applies: for inhibition at 5 µM: read-out: α7 HTS outcome (α7 Ki).
A further test has as its target Human α4β2 (Homo sapiens, UniProt P17787+P43681). Put plainly: Binding at human α4β2 (Ki); method not described.
The target in another test is α4β2 nAChR Subtype (Rattus norvegicus, UniProt P09483+P12390). Briefly: Radioligand binding at α4β2 nAChR subtype, inhibition of [3H]nicotine binding, rat cerebral cortex membranes. Particulars: [3H]nicotine 5 nM. As for the experimental part: The [^3H]nicotine (Specific Activity=81.5 Ci/mmol) was obtained from NEN Research Products. The binding of [^3H]nicotine was measured using a 3 h incubation at 4° C. […] Each filter was washed with ice-cold buffer (3×1 mL).
Each concentration was replicated in triplicate.

Like-named read-outs stand apart in the source and are kept apart here. A value given as a limit tells only on which side of the number the result lay.

α7 nAChR Subtype, sequence (Q05941 23-502): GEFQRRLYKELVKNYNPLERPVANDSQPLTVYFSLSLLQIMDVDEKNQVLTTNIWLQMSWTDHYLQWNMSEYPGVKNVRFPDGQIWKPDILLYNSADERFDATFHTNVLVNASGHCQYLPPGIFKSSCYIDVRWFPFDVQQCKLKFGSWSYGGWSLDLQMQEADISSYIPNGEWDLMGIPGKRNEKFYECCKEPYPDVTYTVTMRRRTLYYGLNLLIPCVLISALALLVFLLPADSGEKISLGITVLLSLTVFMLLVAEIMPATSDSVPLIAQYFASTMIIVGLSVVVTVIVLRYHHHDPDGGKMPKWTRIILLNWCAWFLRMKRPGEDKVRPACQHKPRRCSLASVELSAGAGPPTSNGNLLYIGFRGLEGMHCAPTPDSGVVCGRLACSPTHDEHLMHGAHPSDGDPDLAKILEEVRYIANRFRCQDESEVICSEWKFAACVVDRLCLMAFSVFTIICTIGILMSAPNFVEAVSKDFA
α4β2 nAChR Subtype, sequence (P09483 31-630): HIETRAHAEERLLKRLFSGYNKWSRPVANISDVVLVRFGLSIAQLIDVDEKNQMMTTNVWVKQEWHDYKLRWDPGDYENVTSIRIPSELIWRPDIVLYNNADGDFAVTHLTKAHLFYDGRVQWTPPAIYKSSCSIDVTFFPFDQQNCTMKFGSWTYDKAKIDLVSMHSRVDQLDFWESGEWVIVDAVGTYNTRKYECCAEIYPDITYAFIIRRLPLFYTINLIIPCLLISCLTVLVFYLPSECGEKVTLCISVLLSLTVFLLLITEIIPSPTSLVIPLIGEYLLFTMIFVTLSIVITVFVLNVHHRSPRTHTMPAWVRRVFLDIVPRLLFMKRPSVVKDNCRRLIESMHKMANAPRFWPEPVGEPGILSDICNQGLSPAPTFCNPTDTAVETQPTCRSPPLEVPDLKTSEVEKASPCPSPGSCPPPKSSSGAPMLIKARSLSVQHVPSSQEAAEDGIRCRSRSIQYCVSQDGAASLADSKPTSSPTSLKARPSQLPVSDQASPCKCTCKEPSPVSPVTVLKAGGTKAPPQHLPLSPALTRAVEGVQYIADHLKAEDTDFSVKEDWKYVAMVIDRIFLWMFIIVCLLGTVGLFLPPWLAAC
α4β2 nAChR Subtype, sequence (P12390 25-500): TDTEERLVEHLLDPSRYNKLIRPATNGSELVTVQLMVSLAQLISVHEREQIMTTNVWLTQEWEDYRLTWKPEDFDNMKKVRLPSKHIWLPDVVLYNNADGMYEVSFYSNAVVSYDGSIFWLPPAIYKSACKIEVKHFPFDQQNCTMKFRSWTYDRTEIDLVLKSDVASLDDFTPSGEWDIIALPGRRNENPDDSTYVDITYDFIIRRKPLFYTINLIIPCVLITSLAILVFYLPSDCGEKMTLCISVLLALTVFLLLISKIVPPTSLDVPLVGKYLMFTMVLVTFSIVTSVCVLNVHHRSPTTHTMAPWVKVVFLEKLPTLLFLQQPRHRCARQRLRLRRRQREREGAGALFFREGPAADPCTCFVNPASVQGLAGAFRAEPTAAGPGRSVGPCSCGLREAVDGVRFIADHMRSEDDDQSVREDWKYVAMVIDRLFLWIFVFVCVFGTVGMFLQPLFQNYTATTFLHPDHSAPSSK
Human α4β2, sequence (P43681 29-627 limits assumed): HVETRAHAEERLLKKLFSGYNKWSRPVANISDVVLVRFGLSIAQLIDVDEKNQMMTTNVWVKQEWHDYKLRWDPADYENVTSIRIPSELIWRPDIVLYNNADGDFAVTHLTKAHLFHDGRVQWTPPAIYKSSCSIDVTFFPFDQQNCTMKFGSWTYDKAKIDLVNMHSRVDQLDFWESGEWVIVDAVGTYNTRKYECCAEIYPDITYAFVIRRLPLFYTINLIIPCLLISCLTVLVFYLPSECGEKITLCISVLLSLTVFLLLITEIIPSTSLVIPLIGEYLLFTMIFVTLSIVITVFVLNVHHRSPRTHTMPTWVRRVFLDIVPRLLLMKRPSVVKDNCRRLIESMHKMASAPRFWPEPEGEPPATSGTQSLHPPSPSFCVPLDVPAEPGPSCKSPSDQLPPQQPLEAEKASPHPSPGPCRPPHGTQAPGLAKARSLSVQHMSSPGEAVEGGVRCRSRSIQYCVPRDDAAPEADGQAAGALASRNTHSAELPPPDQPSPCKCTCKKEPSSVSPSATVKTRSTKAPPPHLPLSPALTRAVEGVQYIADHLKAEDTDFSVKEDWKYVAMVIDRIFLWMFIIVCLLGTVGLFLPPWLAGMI
Human α4β2, sequence (P17787 26-502): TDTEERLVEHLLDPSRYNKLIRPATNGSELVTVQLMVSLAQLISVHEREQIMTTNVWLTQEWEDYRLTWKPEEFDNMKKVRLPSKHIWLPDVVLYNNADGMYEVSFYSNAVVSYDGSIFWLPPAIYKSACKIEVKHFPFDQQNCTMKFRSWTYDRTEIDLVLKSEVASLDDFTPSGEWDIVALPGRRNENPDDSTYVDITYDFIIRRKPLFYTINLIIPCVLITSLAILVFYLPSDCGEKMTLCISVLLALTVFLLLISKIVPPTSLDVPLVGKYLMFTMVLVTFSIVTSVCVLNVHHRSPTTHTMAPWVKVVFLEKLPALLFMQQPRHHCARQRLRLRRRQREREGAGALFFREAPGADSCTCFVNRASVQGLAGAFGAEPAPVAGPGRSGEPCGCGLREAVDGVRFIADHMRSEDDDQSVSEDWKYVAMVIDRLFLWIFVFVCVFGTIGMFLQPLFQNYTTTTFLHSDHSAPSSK

Regarding `O=C(OCC1CCOC1)C1C[C@H]2CNC[C@H]2C1` (mixture of isomers) [(tetrahydrofuran-3-yl)methyl 3-azabicyclo[3.3.0]octane-7-carboxylate], at α7 nAChR Subtype, the inhibition at 5 µM is less than 50%. Besides, the results for the Ki at Human α4β2 and on α4β2 nAChR Subtype (read-out: Rat α4β2 Ki) were 47.7 nM and 111 nM, respectively.

Consider `O=C(NCc1ccco1)C1C[C@H]2CNC[C@H]2C1` (mixture of isomers) [N-(2-furanylmethyl)-3-azabicyclo[3.3.0]octane-7-carboxamide], for which the Ki on α7 nAChR Subtype is 74900 nM; on Human α4β2, 302 nM; on α4β2 nAChR Subtype (Rat α4β2 Ki) it was 272 nM.

On to `C=CCNC(=O)C1C[C@H]2CNC[C@H]2C1` (mixture of isomers) [N-allyl-3-azabicyclo[3.3.0]octane-7-carboxamide], for which the Ki at α7 nAChR Subtype was not below 10000 nM; at Human α4β2, 176 nM; at α4β2 nAChR Subtype (read-out: Rat α4β2 Ki) it was 419 nM.

For the compound `CNC(=O)C1C[C@H]2CNC[C@H]2C1` (mixture of isomers) [N-methyl-3-azabicyclo[3.3.0]octane-7-carboxamide], the Ki on α7 nAChR Subtype came out at 27300 nM; on Human α4β2, 185 nM; at α4β2 nAChR Subtype (read-out: Rat α4β2 Ki), 81.4 nM.

For the compound `O=C(C1CCCCC1)C1C[C@H]2CNC[C@H]2C1` (mixture of isomers) [cyclohexyl(3-azabicyclo[3.3.0]oct-7-yl)methanone], at α7 nAChR Subtype, the inhibition at 5 µM was less than 50%. Moreover, the Ki at Human α4β2 was found to be 44.2 nM; at α4β2 nAChR Subtype (read-out: Rat α4β2 Ki), 192 nM.

In the case of `O=C(OC1CC=CC1)C1C[C@H]2CNC[C@H]2C1` (mixture of isomers) [cyclopent-3-en-1-yl 3-azabicyclo[3.3.0]octane-7-carboxylate], the inhibitory constant (Ki) at α7 nAChR Subtype (read-out: α7 Ki, [3H]MLA 5 nM, rat hippocampus) is more than 10000 nM; on Human α4β2 it was 22.5 nM; on α4β2 nAChR Subtype (read-out: Rat α4β2 Ki) it was 59.3 nM.

On to `O=C(OC1CCCC1)C1C[C@H]2CNC[C@H]2C1` (mixture of isomers) [cyclopentyl 3-azabicyclo[3.3.0]octane-7-carboxylate], for which the inhibition at 5 µM on α7 nAChR Subtype was less than 50%. The Ki was 13.9 nM on Human α4β2 and 26.6 nM at α4β2 nAChR Subtype (read-out: Rat α4β2 Ki).

As to `O=C(C1CCCC1)C1C[C@H]2CNC[C@H]2C1` (mixture of isomers) [cyclopentyl(3-azabicyclo[3.3.0]oct-7-yl)methanone], the inhibition at 5 µM on α7 nAChR Subtype was less than 50%. In addition, the Ki at Human α4β2 came to 7.5 nM; on α4β2 nAChR Subtype (read-out: Rat α4β2 Ki) it was 15.9 nM.

As for `O=C(OCC1CC1)C1C[C@H]2CNC[C@H]2C1` (mixture of isomers) [cyclopropylmethyl 3-azabicyclo[3.3.0]octane-7-carboxylate], the results for the Ki on α7 nAChR Subtype, at Human α4β2 and on α4β2 nAChR Subtype (Rat α4β2 Ki) were more than 10000 nM, 40.3 nM and 62.1 nM, respectively.

As to `CCOC(=O)C1C[C@H]2CNC[C@H]2C1` (mixture of isomers) [ethyl 3-azabicyclo[3.3.0]octane-7-carboxylate], the inhibition at 5 µM on α7 nAChR Subtype was less than 50%. Further, the Ki worked out at 17.5 nM at Human α4β2 and 45.8 nM on α4β2 nAChR Subtype (read-out: Rat α4β2 Ki).

On to `CC(C)OC(=O)C1C[C@H]2CNC[C@H]2C1` (mixture of isomers) [isopropyl 3-azabicyclo[3.3.0]octane-7-carboxylate], for which the Ki at α7 nAChR Subtype was more than 10000 nM; at Human α4β2, 7.8 nM; on α4β2 nAChR Subtype (read-out: Rat α4β2 Ki), 103 nM.

Turning to `C#CCC(C)OC(=O)C1C[C@H]2CNC[C@H]2C1` (mixture of isomers) [pent-4-yn-2-yl 3-azabicyclo[3.3.0]octane-7-carboxylate], on α7 nAChR Subtype, the inhibition at 5 µM is less than 50%. In addition, the values for the inhibitory constant (Ki) at Human α4β2 and on α4β2 nAChR Subtype (read-out: Rat α4β2 Ki) were 68.7 nM and 144 nM, respectively.

For `O=C(c1ccncc1)C1C[C@H]2CNC[C@H]2C1` (mixture of isomers) [pyridin-4-yl(3-azabicyclo[3.3.0]oct-7-yl)methanone], the inhibition at 5 µM on α7 nAChR Subtype is less than 50%. The Ki is 36.4 nM on Human α4β2 and 43 nM at α4β2 nAChR Subtype (read-out: Rat α4β2 Ki).

Consider `O=C(OC1CCOCC1)C1C[C@H]2CNC[C@H]2C1` (mixture of isomers) [tetrahydropyran-4-yl 3-azabicyclo[3.3.0]octane-7-carboxylate], for which the inhibition at 5 µM on α7 nAChR Subtype is less than 50%. Also, the Ki turned out to be 146 nM on Human α4β2 and 68.5 nM at α4β2 nAChR Subtype (read-out: Rat α4β2 Ki).

For `NC(=O)C1CC2CNCC(C2)C1` (stereo not drawn) [3-azabicyclo[3.3.1]nonane-7-carboxamide], the Ki at α7 nAChR Subtype was more than 10000 nM; at Human α4β2, 76.9 nM; on α4β2 nAChR Subtype (read-out: Rat α4β2 Ki), 40.5 nM.

On to `O=C(C1CC2CNCC(C2)C1)N1CCOCC1` (stereo not drawn) [4-morpholinyl(3-azabicyclo[3.3.1]non-7-yl)methanone], for which the inhibition at 5 µM at α7 nAChR Subtype is less than 50%. Moreover, the figures for the Ki at Human α4β2 and on α4β2 nAChR Subtype (read-out: Rat α4β2 Ki) were 22.5 nM and 62.5 nM, respectively.

For the origin of these results see patent US20100173968A1, “SUB-TYPE SELECTIVE AZABICYCLOALKANE DERIVATIVES” (TARGACEPT, INC., priority 2007, published 2010).
